According to paper PMC9687990, “Identification, Characterization, and Expression of a β-Galactosidase from Arion Species (Mollusca)” (Biomolecules, 2022):
Blank lines part the entries; values can stand above or below the molecule they belong to.

Key:
[1] = target: T1, recombinant β-galactosidase from A. vulgaris (β-gal) (Arion vulgaris, UniProt A0A0B7AQJ9); assay: inhibition of pNP-β-Gal hydrolysis, colorimetric […] nm; format: biochemical; settings: pNP-β-Gal substrate, pH 4.5, 37 °C, 2 h; 12 mM galactose; product inhibition
T1 construct: gene ORF136304
T1 sequence (A0A0B7AQJ9 1-661): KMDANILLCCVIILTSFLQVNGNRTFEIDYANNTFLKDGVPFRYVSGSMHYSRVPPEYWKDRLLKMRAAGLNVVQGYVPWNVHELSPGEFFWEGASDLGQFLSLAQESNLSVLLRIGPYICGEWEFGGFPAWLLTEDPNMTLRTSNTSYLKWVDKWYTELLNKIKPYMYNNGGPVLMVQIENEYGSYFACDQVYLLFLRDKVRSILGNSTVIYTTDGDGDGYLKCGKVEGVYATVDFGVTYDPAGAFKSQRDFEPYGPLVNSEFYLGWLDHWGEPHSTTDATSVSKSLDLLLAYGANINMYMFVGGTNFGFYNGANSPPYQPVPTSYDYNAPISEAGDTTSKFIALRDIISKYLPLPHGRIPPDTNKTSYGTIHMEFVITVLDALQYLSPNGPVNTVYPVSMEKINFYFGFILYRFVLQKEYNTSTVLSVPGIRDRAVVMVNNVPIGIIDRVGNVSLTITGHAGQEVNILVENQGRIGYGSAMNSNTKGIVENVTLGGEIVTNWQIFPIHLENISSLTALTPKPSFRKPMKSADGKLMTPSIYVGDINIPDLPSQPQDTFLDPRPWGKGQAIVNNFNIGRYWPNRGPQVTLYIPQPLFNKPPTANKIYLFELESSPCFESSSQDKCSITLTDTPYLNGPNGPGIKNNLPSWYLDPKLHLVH

[2] = tested on: T2, native β-galactosidase from A. lusitanicus; assay: colorimetric p-nitrophenol release, […] nm; format: biochemical, Arion vulgaris; settings: pH 4.5 (Na citrate), 37 °C, 2 h; 0.2-12.5 mM substrate
T2 construct: gene β-Gal

purified protein = substrate: O=[N+]([O-])c1ccc(O[C@@H]2O[C@H](CO)[C@H](O)[C@H](O)[C@H]2O)cc1; assay: purified protein; settings: pH 4.5 (Na citrate), 37 °C, 2 h, 0.2-12.5 mM substrate

- % reduction of activity at 12 mM [1]: ~ 40%
Molecule: OC[C@H]1OC(O)[C@H](O)[C@@H](O)[C@H]1O (stereo partly drawn) [galactose]

- Km [2]: 8.3 mM
Molecule: O=[N+]([O-])c1ccc(O[C@@H]2O[C@H](CO)[C@H](O)[C@H](O)[C@H]2O)cc1 [pNP-β-Gal]

B1: recombinant β-galactosidase from A. vulgaris (β-gal) (Arion vulgaris) (protein)
chain: T1 sequence (A0A0B7AQJ9 1-661)
- Km (purified protein): 3.2 mM
